Assays:
NCM460 cells = test: Co-culture model of HCT116 and NCM460, Caspase-3/7 Green flow cytometry; format: cell-based, human; conditions: 24 h; for population percentage of apoptotic cells (Caspase-3/7 Green, corrected): CMF2HC-stained NCM460 in co-culture with HCT116, 2 μM
Description: (§1) This co-culture model treated with 1 for 24 h had 25.04 and 5.01% (Q2 and Q3 regions of Fig. S21a ^†; corrected) of HCT116 and NCM460 cells, respectively, undergoing apoptosis as determined by Caspase-3/7 Green Reagent staining and flow cytometric analysis (Fig. S21 ^†). This confirms the preferential induction of apoptosis by 1 of HCT116 cells over NCM460 cells in the co-culture model, regardless of the effect, if any, of the blue emissive CMF2HC dye.
(§2) atmosphere of 5% CO2. After reaching 80% confluency, the culture medium was
(§3) of 5% CO2 for 45 min. The solution was then removed. The stained NCM460 cells
(§4) the procedure described above.
(§5) right fore of BALB/c nude mice. When the tumor volume reached 70 mm3 after […]

HCT116 cells = test: as above; format: cell-based, human; conditions: 24 h; for population percentage of apoptotic cells (Caspase-3/7 Green, corrected): HCT116 in co-culture with CMF2HC-stained NCM460, 2 μM
Description: as §1, §2, §3, §4, §5

HCT116 xenografts = test: In vivo inhibition of tumor growth in nude mice bearing HCT116 xenograft; conditions: for reduction of tumor volume / reduction of tumor weight: n = 8
Excerpt: The anti-tumor experiments using mice were approved by the animal ethics committees of Jinan University and The University of Hong Kong.
Significant pulmonary hemorrhage in the alveoli and a thickening of alveolar walls were found. Also, apoptotic hepatocytes and swollen renal epithelial cells were found, leading to subsequent shrinkage of kidney tubules. […] The lower systemic toxicity of 1 can be explained by the lower accumulation of 1 in the organs of mice treated at its effective dosage, as compared to that of 3 and Au1a (Fig. S23 ^†). […] This can be attributable to the nanostructures of 1, which may lead to in vivo tumor accumulation by the EPR effect.[55] […]
atmosphere of 5% CO2. […]
as §5
every 2 days for 24 days. The control group received equal volume of PBS only.
During the treatment period, the tumor volume and body weight of the nude mice were measured per two days. The tumor volume was calculated by the equation:
Volume (mm3) = l×w2/2, where l and w were the length and width of the tumor. At the end of the treatment, the nude mice were sacrificed and the tumor weight was […]
H&E staining and immunohistochemical (IHC) analysis of mice tissues. For histological and immunohistochemical analysis, the tissues were fixed with 3.7% formaldehyde, embedded with paraffin and sectioned. Subsequently, the tissues were stained with hematoxylin and eosin for histological observation under an optical microscope (magnification: 10×). The expression of p53, Ki67, VEGFR2 and TUNEL was determined by IHC methods as reported previously. S7
Hematological analysis of nude mice bearing HCT116 xenograft. The blood samples of mice without bearing HCT116 xenograft and xenograft-bearing mice treated with 1, 3 and PBS control were collected. The plasma was obtained by centrifuging the blood sample with speed at 3000 rpm. The plasma was then subjected to hematological analysis to determine biochemical indexes of alanine aminotransferase (ALT), asparatate aminotransferase (AST), globulin (GLB), blood urea nitrogen (BUN), uric acid (UA), creatinine (CREA), lactate dehydrogenase (LDH) and creatine kinase (CK) in blood of the mice. […]

[1] = Hydrolysis in aqueous buffer solutions by 1H NMR; format: physicochemical; conditions: 24 h, 37 °C; pH 4 (1), pH 4 or 7.4 (2)
[2] = Release of hydrolyzed gold(III) porphyrin moiety in aqueous buffer solutions (dialysis, ICP-MS); format: physicochemical; conditions: for hydrolyzed product found: sodium acetate buffer pH 4, 37 °C
Description: The rate of the release of the gold(III) porphyrin moiety from the conjugates in aqueous buffer solutions at different pH values was determined according to the reported methodology.[24],[26],[27] Nanostructures of 1 and 2 were dissolved in PBS or sodium acetate buffer (pH 4.0) and then dialyzed against a large volume of PBS or sodium acetate buffer solution in the dark at 37 °C using a 1000 Da cut-off dialysis membrane (details are included in the ESI ^†). The quantity of the hydrolyzed gold(III) porphyrin moiety at different time points was determined by inductively coupled plasma mass spectrometry (ICP-MS; Fig. 2a). In PBS, 31% and 60% of 1 were hydrolyzed at 6 and 24 h, respectively, while only 2% and 3% of hydrolyzed product of 2 were found at 5 and 24 h, and more than 89% of 2 remained unhydrolyzed at 96 h. […] Faster release was also found upon incubation of 2 in pH 4 buffer solution compared to that in PBS, but the amount was still much smaller than that found in the study of 1. As the only difference between 1 and 2 is the chemical structure of the linkage for PEG conjugation, the faster release of the gold(III) porphyrin moiety from 1 in PBS than that from 2 should be attributed to the higher tendency of the ester bond in 1 to undergo hydrolytic cleavage than the amide bond in 2.[52] […]
Study on the release of hydrolyzed product from 1 and 2 in aqueous buffer solutions by ICP-MS. The nanostructures of gold(III) complex was dissolved in PBS solution (pH 7.4; 1 mg/mL) or sodium acetate buffer solution (pH 4.0; 1 mg/mL) and was dialyzed against 1 L of the buffer solution at 37 °C using semipermeable minidialysis tubes (molecular weight cut-off = 1,000 Da; GE Healthcare). At a predetermined time, an aliquot of solution was removed and dissolved in HNO3/HCl solution mixture (9:1, v/v; volume of aliquot: volume of acid mixture = 1:3). The solution mixture was heated at 65 °C with shaking overnight, and the gold content was determined by ICP-MS from three independent aliquots. […]

[3] = Zeta potential measurement of nanostructures in PBS; format: physicochemical
Excerpt: On the other hand, the almost neutral zeta potentials of the nanostructures of 1 and 2 validated the presence of PEG pendant in the shell of the nanostructures. The identity of gold species in the core of the nanostructures was supported by the good contrast of the core in the TEM images (Fig. 1c and S3a ^†) and energy-dispersive X-ray (EDX) spectra (Fig. 1f). […]
(MIHA), human normal liver cells (L02) and human normal gliocyte cells (CHEM-5) were maintained in Dulbecco’s modified Eagle’s medium with 10 vol% fetal bovine serum, ʟ-glutamine (2 mM) and penicillin/streptomycin (100 U/mL). […]
TOF/TOF™ Analyzer using α-cyano-4-hydroxycinnamic acid with sodium trifluoroacetate as the matrix. […]
Premier quadrupole time-of-flight tandem mass spectrometer. […]
Ultra performance […]
liquid chromatography (UPLC) measurements were performed on a Waters
ACQUITY UPLC H-Class System equipped with a photodiode array for detection.
Elemental analyses were performed on the Carlo Erba 1106 elemental analyzer at the Institute of Chemistry, Chinese Academy of Sciences, Beijing, China. […]
Dynamic light scattering (DLS) and zeta potential measurements were performed

[4] = 4 mg kg^–1, intravenous injection every two days for 24 days
[5] = 2 mg kg^–1, intravenous injection every two days for 24 days

Compound | population percentage of apoptotic cells (Caspase-3/7 Green, corrected) (NCM460 cells) [%] | population percentage of apoptotic cells (Caspase-3/7 Green, corrected) (HCT116 cells) [%] | reduction of tumor volume (HCT116 xenografts; [4]) [%] | reduction of tumor weight (HCT116 xenografts; [4]) [%] | change in 1H NMR spectra after incubation in buffer [1] | hydrolyzed (release of gold(III) porphyrin moiety) ([2]; PBS, 37 °C, 5 h) [%] | hydrolyzed (release of gold(III) porphyrin moiety) ([2]; PBS, 37 °C, 24 h) [%] | remained unhydrolyzed ([2]; PBS, 37 °C, 96 h) | Zeta potential [3] | hydrolyzed (release of gold(III) porphyrin moiety) ([2]; PBS, 37 °C, 6 h) [%] | hydrolyzed product found ([2]; 6 h) [%] | hydrolyzed product found ([2]; 24 h) [%] | reduction of tumor volume (HCT116 xenografts; [5]) [%] | reduction of tumor weight (HCT116 xenografts; [5]) [%] | nuclear atypia and mitosis in tumor sections (immunohistochemical analysis) (HCT116 xenografts; 4 mg kg^–1 i.v., 24 days) | cells undergoing apoptosis (Caspase-3/7 Green, corrected) (NCM460 cells; co-culture with HCT116 pre-treated with CMF2HC dye, NCM460 cells) [%] | cells undergoing apoptosis (Caspase-3/7 Green, corrected) (HCT116 cells; co-culture with HCT116 pre-treated with CMF2HC dye, HCT116 cells) [%]
C1=Cc2nc1c(-c1ccccc1)c1ccc([n-]1)c(-c1ccccc1)c1nc(c(-c3ccccc3)c3ccc([n-]3)c2-c2ccccc2)C=C1.[Au+3].[Cl-] [Au1a, [Au(TPP)]Cl, reference compound] | 29.3 | 54.6 | – | – | – | – | – | – | – | – | – | – | – | – | – | – | –
COC(=O)c1ccc(C2=C3C=CC(=N3)C(c3ccccc3)=c3ccc4[n]3[Au+][n]3c(ccc32)C(c2ccccc2)=C2C=CC(=N2)C=4c2ccccc2)cc1.[Cl-] [Compound 3, [Au(TPP–COOCH3)]^+] | – | – | 56 | 49 | – | – | – | – | – | – | – | – | – | – | – | – | –
[Au(TPP–CONH–PEG5000–OCH3)]Cl [Compound 2] | – | – | – | – | no observable change in the NMR spectra | 2 | 3 | more than 89% | –0.7 ± 4.2 mV | – | – | – | – | – | – | – | –
[Au(TPP–COO–PEG5000–OCH3)]Cl [Compound 1] | 4.1 | 25.3 | 58 | 53 | disappearance of peaks from protons of –COOCH 2CH 2– | – | 60 | – | –0.1 ± 1.6 mV | 31 | 60 | 96 | 41 | 35 | Effective elimination of nuclear atypia and mitosis were observed | 5.01 | 25.04

Source: PMC5384453, “A multi-functional PEGylated gold(III) compound: potent anti-cancer properties and self-assembly into nanostructures for drug co-delivery” (Chemical Science, 2016)
